Measurements reported in patent US20250144067A1, “PERSONALIZED STARVATION THERAPY FOR CANCER” (Faeth Therapeutics, Inc., priority 2021, published 2025).
Like-named read-outs stand apart in the source and are kept apart here.

Assays:
[1] = test system: NCI-H292 lung cancer cells; test: FDA drug screening, complete media vs cholesterol-free media with simvastatin (TABLE 2); format: cell-based, human
[2] = test system: NCI-H292 lung cancer cells; test: FDA drug screening, complete media vs cholesterol-free media without statin (TABLE 1); format: cell-based, human
[3] = complete media vs cholesterol-free media + simvastatin (0.04 μM), […]
[4] = Complete minus Cholesterol-free, […]
[5] = NCI-H292 cells in cholesterol-free media without statin
[6] = NCI-H292 cells in complete media
[7] = NCI-H292 cells, drug in cholesterol-free media with simvastatin 0.04 μM
[8] = NCI-H292 cells, drug in complete media
[9] = NCI-H292 cells, cholesterol-free media without statin
[10] = NCI-H292 cells, cholesterol-free media with simvastatin 0.04 μM, FDA drug library screen (TABLE 2)
[11] = NCI-H292 cells, complete media, FDA drug library screen (TABLE 2)
[12] = complete media minus cholesterol-free media + simvastatin (0.04 μM), >0 enhanced anti-cancer activity, about 0 neutral, <0 antagonist
[13] = Complete minus Cholesterol-free, greater than 0 enhanced anti-cancer activity, about 0 neutral, below 0 antagonist
[14] = NCI-H292 cells, FDA drug library screen, cholesterol-free media without statin
[15] = NCI-H292 cells, FDA drug library screen, complete media
[16] = NCI-H292 cells, FDA drug library screen, cholesterol-free media with simvastatin 0.04 μM
[17] = complete media minus cholesterol-free media + simvastatin, […]
[18] = complete vs cholesterol-free media, […]
[19] = NCI-H292 cells, cholesterol-free media with simvastatin 0.04 μM, cell growth value in FDA drug screen
[20] = NCI-H292 cells, complete media, cell growth value in FDA drug screen
[21] = complete media minus cholesterol-free media + simvastatin, >0 enhanced anti-cancer activity, about 0 neutral, <0 antagonist
[22] = complete media minus cholesterol-free media + simvastatin (0.04 μM), […]
[23] = NCI-H292 cells, cholesterol-free media without statin, FDA drug library screen
[24] = NCI-H292 cells, complete media, FDA drug library screen
[25] = complete media vs cholesterol-free media + simvastatin (0.04 μM), >0 enhanced anti-cancer activity, about 0 neutral, <0 antagonist

Substance: Ketotifen (fumarate)
- Cholesterol-free media + simvastatin (0.04 μM) ([1]; NCI-H292 cells, FDA library drug in cholesterol-free media with simvastatin 0.04 μM): 1.876
- Complete Media ([1]; NCI-H292 cells, FDA library drug in complete media): 1.552
- Difference [1, 3]: −0.32
- Difference [2, 4]: −0.71
- Cholesterol-free [2, 5]: 1.545
- Complete [2, 6]: 0.8394

Substance: Lanreotide (acetate)
- Cholesterol-free media + simvastatin (0.04 μM) [1, 7]: 1.388
- Complete Media [1, 8]: 1.218
- Difference [1, 3]: −0.17
- Difference [2, 4]: −0.24
- Cholesterol-free [2, 9]: 1.287
- Complete ([2]; NCI-H292 cells, complete media): 1.045

Substance: Lapatinib (ditosylate)
- Cholesterol-free media + simvastatin (0.04 μM) [1, 10]: 0.4889
- Complete Media [1, 11]: 0.4758
- Difference [1, 12]: −0.01
- Difference [2, 13]: −0.15
- Cholesterol-free [2, 14]: 0.4354
- Complete [2, 15]: 0.2847

Substance: Lasofoxifene (Tartrate)
- Cholesterol-free media + simvastatin (0.04 μM) [1, 16]: 0.6494
- Complete Media [1, 15]: 0.9428
- Difference [1, 17]: 0.29
- Cholesterol-free [2, 9]: 1.19
- Complete ([2]; NCI-H292 cells, complete media): 0.7569
- Difference [2, 18]: −0.43

Substance: Lefamulin (acetate)
- Cholesterol-free media + simvastatin (0.04 μM) [1, 16]: 1.429
- Complete Media [1, 15]: 1.575
- Difference [1, 17]: 0.15
- Difference [2, 4]: −0.23
- Cholesterol-free [2, 9]: 1.096
- Complete ([2]; NCI-H292 cells, complete media): 0.8619

Substance: Lenvatinib (mesylate)
- Cholesterol-free media + simvastatin (0.04 μM) [1, 10]: 1.17
- Complete Media [1, 11]: 1.154
- Difference [1, 12]: −0.02
- Difference [2, 13]: −0.10
- Cholesterol-free [2, 14]: 0.845
- Complete [2, 15]: 0.7401

Substance: Leuprolide (Acetate)
- Cholesterol-free media + simvastatin (0.04 μM) [1]: 1.032
- Complete Media [1]: 1.087
- Difference [1]: 0.06
- Cholesterol-free [2]: 1
- Complete [2]: 0.6877
- Difference [2]: −0.31

Substance: Levamlodipine besylate
- Cholesterol-free media + simvastatin (0.04 μM) [1]: 1.066
- Complete Media [1]: 0.9372
- Difference [1]: −0.13
- Cholesterol-free [2]: 1.261
- Difference [2]: −0.22

Substance: Loxapine (succinate)
- Cholesterol-free media + simvastatin (0.04 μM) [1, 19]: 1.274
- Complete Media [1, 20]: 1.361
- Difference [1, 21]: 0.09
- Difference ([2]; Complete minus Cholesterol-free, greater than 0 enhanced anti-cancer activity, about 0 neutral, below 0 antagonists): −0.72
- Cholesterol-free [2, 5]: 1.602
- Complete [2, 6]: 0.8776

Substance: Lumateperone (tosylate)
- Cholesterol-free media + simvastatin (0.04 μM) [1, 10]: 1.37
- Complete Media [1, 11]: 1.357
- Difference [1, 22]: −0.01
- Difference [2, 4]: −0.84
- Cholesterol-free [2, 5]: 1.615

Substance: Mafenide (Acetate)
- Cholesterol-free media + simvastatin (0.04 μM) [1, 19]: 0.8255
- Complete Media [1, 20]: 0.8982
- Difference [1, 21]: 0.07
- Difference [2, 13]: −0.16
- Cholesterol-free [2, 14]: 1.179
- Complete [2, 15]: 1.017

Substance: Maraviroc
- Difference [1, 17]: 0.03
- Cholesterol-free [2, 23]: 0.6337
- Complete [2, 24]: 0.8933
- Difference [2, 18]: 0.26

Substance: Masitinib (mesylate)
- Cholesterol-free media + simvastatin (0.04 μM) [1, 16]: 1.086
- Complete Media [1, 15]: 1.002
- Difference [1, 25]: −0.08
- Difference [2, 13]: −0.14
- Cholesterol-free [2, 14]: 1.027
- Complete [2, 15]: 0.8899

Substance: Medroxyprogesterone
- Cholesterol-free media + simvastatin (0.04 μM) [1, 16]: 0.8858
- Complete Media [1, 15]: 1.173
- Difference [1, 17]: 0.29
- Difference [2, 4]: −0.03
- Complete [2, 24]: 0.9783

Substance: Merbromin
- Cholesterol-free media + simvastatin (0.04 μM) [1, 10]: 1.023
- Complete Media [1, 11]: 1.006
- Difference [1, 22]: −0.02
- Cholesterol-free [2, 23]: 1.294
- Complete [2, 24]: 1.544
- Difference [2, 18]: 0.25

Substance: Metaproterenol (hemisulfate)
- Cholesterol-free media + simvastatin (0.04 μM) [1, 7]: 1.002
- Complete Media [1, 8]: 0.7891
- Difference [1, 25]: −0.21
- Cholesterol-free [2, 23]: 0.8425
- Difference ([2]; complete vs cholesterol-free media, >0 enhanced anti-cancer activity, about 0 neutral, <0 antagonist): 0.09

Substance: Methylergometrine (maleate)
- Cholesterol-free media + simvastatin (0.04 μM) [1, 16]: 1.017
- Complete Media [1, 15]: 0.9007
- Difference [1, 3]: −0.12
- Cholesterol-free [2, 9]: 1.022
- Difference [2, 18]: −0.31

Substance: Metoprolol (Succinate)
- Cholesterol-free media + simvastatin (0.04 μM) [1, 7]: 1.072
- Complete Media [1, 8]: 0.8786
- Difference [1, 25]: −0.19
- Difference ([2]; Complete minus Cholesterol-free, >0 enhanced anti-cancer activity, about 0 neutral, <0 antagonist): 0.02
- Cholesterol-free [2, 23]: 0.9592
- Complete [2, 24]: 0.9837

Substance: Miconazole (nitrate)
- Cholesterol-free media + simvastatin (0.04 μM) [1]: 0.4137
- Complete Media [1]: 0.8009
- Difference [1]: 0.39
- Cholesterol-free [2]: 0.9239
- Complete [2]: 0.8136
- Difference [2]: −0.11
